Experimental findings from patent US20220378740A1, “COMPOSITIONS AND METHODS OF MAKING EXPANDED HEMATOPOIETIC STEM CELLS USING DERIVATIVES OF CARBAZOLE” (Transfusion Health, LLC, priority 2019, published 2022) are described below.

Assay [1] relates to CD34+ cells from cord blood. Description: Expansion of cord blood-derived CD34+ cells in culture, fold change days 1 to 7 (flow cytometry). Format: cell-based, human. The following applies: relative to vehicle control (DMSO), 3% oxygen. How it is done: (§1) CD34+ cells from cord blood were purchased from STEMCELL Technologies. Primary human CD34+ cells were isolated by the supplier from cord blood samples using positive immunomagnetic separation techniques. Cells were thawed and gradually brought to room temperature. Samples were washed, then placed in overnight culture in StemSpan with 100 ng/ml each of FLT3L, TPO, SCF, and IL-6. Eighteen to twenty-four hours later (day 1), cells were counted and immunophenotyped (flow cytometry on an Invitrogen Attune N×T cytometer).
Approximately 1000 live cells were plated into each well of 96-well plates (total volume 200 μl); exact cell numbers dispensed per well were quantified with flow cytometry for later calculations.
Media for testing compounds of Formula I, except for compound 2.015, was prepared using StemSpan SFEM (STEMCELL Technologies). Media for testing compound 2.015 was prepared using Alpha-MEM without phenol red (Gibco) with 10% (v/v) heat inactivated fetal bovine serum (FBS). All other treatments are the same for all tested compounds. Culture conditions also included an antibiotic solution that includes penicillin, streptomycin, and amphotericin B to avoid contamination. Additional media components and concentrations used for the compounds tested are described in Table 2.
(§2) All incubations for this experiment took place at 3%˜ oxygen (controlled by nitrogen) and […]. Following seven days of culture, cells from wells were collected and phenotypes were analyzed (flow cytometry on an Invitrogen Attune N×T cytometer).
The graphs in FIG. 1-5 report the fold change in cells between days 1 and 7. Each point in the figures reports the average fold change of the indicated number of replicates at the noted concentration of the compound of Formula I tested. Error bars display the maximum and minimum fold change measured at that concentration. The dashed line reports the expansive effect of the base conditions (i.e. vehicle control).
Table 3, below, summarizes the relative expansive effects of Compounds 2.001 to 2.004 and 2.015 at the indicated concentration. It is calculated as shown below: […]
(A flow cytometer gives signals particle by particle.)

For assay [2], the system named is HSCs derived from cord blood. As to the kind of experiment: Long-term (14 day) expansion of hematopoietic stem cells derived from cord blood. Format: cell-based, human. The following applies: 14 days in culture; Compound 2.001 at 10 μM, Compound 2.002 at 1 μM, Compound 2.003 at 10 μM. How it is done:
as §1, §2
Cells were cultured to seven days as described in Example 5. Following seven days in culture, 25% of cells from selected wells were passaged to 12-well plates (2 ml total volume), with conditions for these wells prepared as on day 1. Wells selected were: Compound 2.001 at 10 μM, Compound 2.002 at 1 μM, Compound 2.003 at 10 μM, and base conditions with vehicle control (DMSO). Cells were then allowed seven further days of expansion prior to analysis at day 14. Cell numbers calculated at day 14 account for the passaging of the cells at day seven.

The mark [3] stands for this setting: 2.819 μM compound, Alpha-MEM without phenol red with 10% FBS.
Setting [4] is: 3.162 μM compound, StemSpan SFEM.

On to `CC(C)(C)C(=O)Nc1ccc2c(c1)[nH]c1ccccc12` [Compound 2.002, N-(9H-carbazol-2-yl)-2,2-dimethylpropanamide], for which, in assay [1] (1 μM compound, StemSpan SFEM), the “CD34 effect (relative expansive effect on CD34+ cells)” value is “++++ (1.8 ≤ × < 2.2)” and the “CD90 effect (relative expansive effect on CD34+/CD133+/CD90+ cells)” value was “++++ (1.8 ≤ × < 2.2)”. Moreover, in assay [2], the “expansion of HSCs from cord blood in extended culture” value (shortened to “expansion of HSCs from cord blood”) is given as “expand HSCs from cord blood for at least 14 days in culture”.
Turning to `CC(=O)Nc1ccc2c(c1)[nH]c1ccccc12` [Compound 2.001, N-(9H-carbazol-2-yl)acetamide], in assay [1] (10 μM compound, StemSpan SFEM), the “CD34 effect (relative expansive effect on CD34+ cells)” value is “++++ (1.8 ≤ × < 2.2)” and the “CD90 effect (relative expansive effect on CD34+/CD133+/CD90+ cells)” value was “+++++ (2.2 ≤×)”. The “expansion of HSCs from cord blood” value in assay [2] is given as “expand HSCs from cord blood for at least 14 days in culture”.
On to `CC(C)(C)C(=O)Nc1ccc2c(c1)oc1ccccc12` [Compound 2.004, 2,2-dimethyl-N-{8-oxatricyclo[7.4.0.0^2,7]trideca-1(13),2(7),3,5,9,11-hexaen-5-yl}propanamide], for which, in assay [1] (1 μM compound, StemSpan SFEM), the “CD34 effect (relative expansive effect on CD34+ cells)” value is reported as “+++ (1.6 ≤ × < 1.8)” and the “CD90 effect (relative expansive effect on CD34+/CD133+/CD90+ cells)” value is listed as “++ (1.2 ≤ × < 1.6)”.
Consider `COc1cc2c(cc1N)oc1ccccc12` [Compound 2.015], for which, in assay [1] (setting [3]), the “CD34 effect (relative expansive effect on CD34+ cells)” value is reported as “+ (1 < × < 1.2)” and the “CD90 effect (relative expansive effect on CD34+/CD133+/CD90+ cells)” value is reported as “+ (1 < × < 1.2)”.
Consider `CC(=O)Nc1ccc2c(c1)oc1ccccc12` [Compound 2.003, N-{8-oxatricyclo[7.4.0.0^2,7]trideca-1(13),2(7),3,5,9,11-hexaen-5-yl}acetamide], for which, in assay [1] (setting [4]), the “CD34 effect (relative expansive effect on CD34+ cells)” value is “++++ (1.8 ≤ × < 2.2)” and the “CD90 effect (relative expansive effect on CD34+/CD133+/CD90+ cells)” value is recorded as “++++ (1.8 ≤ × < 2.2)”. The “expansion of HSCs from cord blood” value in assay [2] was “expand HSCs from cord blood for at least 14 days in culture”.
